Values quoted from earlier work, collected in publication PMC6151961 (Journal of Enzyme Inhibition and Medicinal Chemistry, 2018).
Like-named read-outs stand apart in the source and are kept apart here.

Target: CA IX (Homo sapiens, UniProt Q16790)
Conditions: cited from earlier work; for Ki: read-out: Ki
[1] = library compounds (IDs A…, B…) of Table S4, ref ChEMBL and BindingDB
[2] = library compounds (IDs A…, B…), values equal log10 of Ki in nM, ref ChEMBL and BindingDB
[3] = library compounds (IDs A…, B…), observed Ki towards CA IX, ref ChEMBL and BindingDB
[4] = observed Ki of library compounds (IDs A…, B…), ref ChEMBL and BindingDB
[5] = experimental pKi towards CA IX, library compounds, ref ChEMB database (ID A), BindingDB (ID B)
[6] = observed Ki towards CA IX, library compounds, ref ChEMB database (ID A), BindingDB (ID B)

Row | SMILES | log10 of Ki in nM [2] | log10 of Ki in nM | Ki [µM] | also measured
1 | NS(=O)(=O)c1ccc2c(c1)S(=O)(=O)C[C@H]2OCc1ccccc1 [A0131] | 0.447 |  |  | Ki [1]: 0.0028 µM
2 | NS(=O)(=O)c1ccc(OC2=NON(O)[C@@H]2S(=O)(=O)c2ccccc2)cc1 [A0390] | 0.806 |  |  | Ki [3]: 0.0064 µM
3 | COc1ccc2c(c1)CCN(S(N)(=O)=O)[C@H]2c1ccc(S(N)(=O)=O)cc1 [A0401] |  | 0.813 | 0.0065 | 
4 | COc1ccc2c(c1)CCN(S(N)(=O)=O)[C@H]2c1ccc(C#N)cc1 [A0427] | 0.845 |  |  | Ki [1]: 0.007 µM
5 | NS(=O)(=O)c1ccc([C@H]2c3ccc(O)cc3CCN2S(N)(=O)=O)cc1 [A0504, reference compound] |  | 0.898 | 0.0079 | 
6 | O=S(=O)(NO)N[C@H]1C=C[C@H](O)[C@@H](CO)O1 [A0589] |  | 0.954 | 0.009 | 
7 | COc1ccc2c(c1)CCN(S(N)(=O)=O)[C@H]2c1ccc(N)cc1 [A0718] | 1.079 |  |  | Ki [1]: 0.012 µM
8 | COc1ccc2c(c1)CCN[C@H]2c1ccc(S(N)(=O)=O)cc1 [A0785] |  | 1.188 | 0.0154 | 
9 | CC[C@@H](Sc1nc(-c2cccc(OC)c2)c(C#N)c(=O)[nH]1)C(=O)Nc1ccc(S(N)(=O)=O)cc1 [A0953] | 1.380 |  |  | Ki [4]: 0.024 µM
10 | NS(=O)(=O)c1ccc(CC/N=C\c2ccc(-c3ccccn3)cc2)cc1 [A1025] |  |  |  | log10 of Ki in nM [5]: 1.446; Ki [6]: 0.0279 µM
11 | CC1(C)CC(NC(=S)Nc2ccc(S(N)(=O)=O)cc2)CC(C)(C)N1O [A1198] | 1.613 |  |  | Ki [3]: 0.041 µM
12 | CCOc1ccc2c(c1)CCN(S(N)(=O)=O)[C@H]2c1ccc(S(N)(=O)=O)cc1 [A1289] |  | 1.717 | 0.0521 | 
13 | NS(=O)(=O)c1ccc(N2C(=O)CS[C@@H]2c2cccc(F)c2)cc1 [A1295] | 1.725 |  |  | Ki [3]: 0.0531 µM
14 | NS(=O)(=O)c1ccc([C@H]2C(Oc3ccccc3)=NON2O)cc1 [A1359] | 1.806 |  |  | Ki [3]: 0.0639 µM
15 | CC(=O)N1N=C(c2ccc(C)cc2)C[C@H]1c1c(C)nn(-c2ccc(S(N)(=O)=O)cc2)c1Cl [A1383] | 1.827 |  |  | Ki [3]: 0.0671 µM
16 | COc1ccc2c(c1)CCN(S(N)(=O)=O)[C@H]2c1ccccc1 [A1457] | 1.892 |  |  | Ki [3]: 0.078 µM
17 | CC(C)OS(N)(=O)=O [A2163] |  |  | 1 | 
18 | O=C(Cc1ccccc1Br)Oc1ccc2c(c1)OS(=O)(=O)CC2 [A2452] |  |  |  | log10 of Ki in nM [5]: 4.000; Ki [6]: 10 µM
19 | CC/C(=N/Nc1ccc([N+](=O)[O-])cc1)Sc1cc(Cl)c(C)cc1S(N)(=O)=O [A2453] | 4.000 |  |  | Ki [3]: 10 µM
20 | Cc1cc(S(N)(=O)=O)c(S/C(=N\Nc2ccc([N+](=O)[O-])cc2)c2ccccc2)cc1Cl [A2454] | 4.000 |  |  | Ki [1]: 10 µM
21 | CC(=O)CN1C(=O)C=C(C)OS1(=O)=O [A2477] | 4.301 |  |  | Ki [3]: 20 µM
22 | CCCN(CCC)S(=O)(=O)c1ccc(C(=O)N[C@H](CO)C(N)=O)cc1 [B0020] |  | 0.415 | 0.0026 | 
23 | N#C/C(=C/C=C\c1ccccc1)C(=O)Nc1ccc(S(N)(=O)=O)cc1 [B0085] |  |  |  | log10 of Ki in nM (library compounds (IDs A..., B...), values equal log10 of Ki in nM, ref ChEMBL, BindingDB): 0.690; Ki (observed Ki of library compounds (IDs A..., B...), ref ChEMBL, BindingDB): 0.0049 µM
24 | CC(=O)OC[C@H]1O[C@@H](n2cc(-c3ccc(S(N)(=O)=O)cc3)nn2)[C@@H](OC(C)=O)[C@@H](OC(C)=O)[C@@H]1OC(C)=O [B0096] |  | 0.699 | 0.005 | 
25 | CC1=CC(c2ccccc2)C=C(C)N1CCc1ccc(S(N)(=O)=O)cc1 [B0111] | 0.778 |  |  | Ki [4]: 0.006 µM
26 | CC(=O)OC[C@@H]1O[C@H](S(=O)(=O)Cc2cn(-c3ccc(S(N)(=O)=O)cc3)nn2)[C@@H](OC(C)=O)[C@H](OC(C)=O)[C@H]1OC(C)=O [B0149] |  | 0.875 | 0.0075 | 
27 | NS(=O)(=O)c1ccc(-n2cc(CS(=O)(=O)[C@@H]3O[C@@H](CO)[C@H](O)[C@@H](O)[C@H]3O)nn2)cc1 [B0162] |  | 0.908 | 0.0081 | 
